Laboratory results taken from article doi:10.1101/2024.05.19.594723v1 (biorxiv, 2024).
Where a name gives a salt, the structure may show the parent alone. Read-outs that look alike come from different tables or passages of the source.

Assays:
[1] = target: T1, CHIKV nsP1 (Chikungunya virus strain S27-African prototype, UniProt Q8JUX6); assay type: binding
T1 sequence (Q8JUX6 1-535): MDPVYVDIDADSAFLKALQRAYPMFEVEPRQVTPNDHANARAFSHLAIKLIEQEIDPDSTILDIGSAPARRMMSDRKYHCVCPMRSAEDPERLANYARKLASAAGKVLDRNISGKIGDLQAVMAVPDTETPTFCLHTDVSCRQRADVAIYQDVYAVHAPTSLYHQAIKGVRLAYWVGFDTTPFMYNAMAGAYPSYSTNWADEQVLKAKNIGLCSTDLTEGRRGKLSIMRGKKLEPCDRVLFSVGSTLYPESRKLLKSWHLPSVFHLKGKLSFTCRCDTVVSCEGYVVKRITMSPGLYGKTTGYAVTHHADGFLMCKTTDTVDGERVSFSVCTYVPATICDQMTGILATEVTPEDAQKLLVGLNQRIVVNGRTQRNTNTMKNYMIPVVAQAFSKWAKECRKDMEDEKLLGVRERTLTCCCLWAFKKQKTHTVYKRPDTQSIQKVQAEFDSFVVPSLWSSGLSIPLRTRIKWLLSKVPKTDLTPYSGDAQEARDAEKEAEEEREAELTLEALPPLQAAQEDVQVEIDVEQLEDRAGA

[2] = tested on: Sindbis virus SINV; experiment: microbe, parasite or virus in culture; conditions: BHK-21, read-out: SINV replicon assay IC50 (μM)
[3] = tested on: Chikungunya virus CHIKV; experiment: microbe, parasite or virus in culture; conditions: read-out: Plaque reduction assay IC50 (nM)
[4] = in vitro; conditions: hamster, bhk-21 cells
[5] = in vitro; conditions: monkey, vero cells
[6] = target: T1, CHIKV nsP1; experiment: biochemical

| SMILES | Kd [1] | IC50 [2] | IC50 [3] | CC50 at 24 h [4] | CC50 at 24 h [5] | Kd [6] |
| --- | --- | --- | --- | --- | --- | --- |
| CC1(C)CCC(CN2CCN(c3ccc(C(=O)NS(=O)(=O)c4ccc(NCC5CCOCC5)c([N+](=O)[O-])c4)c(Oc4cnc5[nH]ccc5c4)c3)CC2)=C(c2ccc(Cl)cc2)C1 [ABT199/Venetoclax] | ~161 µM | 0.23 ± 0.04 µM | 3.46 ± 1.31 nM | > 2.5 µM | 5 µM | – |
| COc1cc2c3cc1Oc1c(OC)c(OC)cc4c1[C@@H](Cc1cccc(c1)Oc1ccc(c(O)c1)C[C@@H]3N(C)CC2)N(C)CC4 [Berbamine Hydrochloride] | – | 1.94 ± 0.97 µM | < 100 nM | 46 µM | > 25 µM | 5.45 ± 0.77 µM |
| Cc1ccc(C(=O)Nc2ccc(CN3CCN(C)CC3)c(C(F)(F)F)c2)cc1C#Cc1cnc2cccnn12 [Ponatinib] | ~3.83 µM | > 1.25 µM | < 3.9 nM | 2.4 µM | 7.95 µM | – |
